Source: ChEMBL document CHEMBL1201862, “PubChem BioAssay data set” (2004)
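Method: 48-hour compound exposure of cells in 96-well plates, five concentrations, linear interpolation of endpoints. Abbreviation: GI50, concentration required for 50% inhibition of growth.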 Calls of active or inactive are those of the source. Cut-off read from the data, not from the text of the source: active = GI50 up to about 1.1 µM and inactive = higher.

Columns and labels:
Test in all cases: NCI anticancer screen, dose series, 48 h
COLO 205 = test system: COLO 205
SNB-19 = test system: SNB-19
DLD-1 = test system: DLD-1
SN12C = test system: SN12C
MOLT-4 = test system: MOLT-4
A549 = test system: A549
A498 = test system: A498
RXF 393 = test system: RXF 393
OVCAR-5 = test system: OVCAR-5
SR = test system: SR
HCT-15 = test system: HCT-15
OVCAR-3 = test system: OVCAR-3
DMS-114 = test system: DMS-114
HCT-116 = test system: HCT-116
SF-539 = test system: SF-539
HOP-62 = test system: HOP-62
HCC 2998 = test system: HCC 2998
SNB-75 = test system: SNB-75
OVCAR-4 = test system: OVCAR-4
HT-29 = test system: HT-29

Row | Structure (SMILES) | GI50 (COLO 205) | GI50 (SNB-19) | GI50 (DLD-1) | GI50 (SN12C) | GI50 (MOLT-4) | GI50 (A549) | GI50 (A498) | GI50 (RXF 393) | GI50 (OVCAR-5) | GI50 (SR) | GI50 (HCT-15) | GI50 (OVCAR-3) | GI50 (DMS-114) | GI50 (HCT-116) | GI50 (SF-539) | GI50 (HOP-62) | GI50 (HCC 2998) | GI50 (SNB-75) | GI50 (OVCAR-4) | GI50 (HT-29)
1 | COc1cc2c(cc1OC)C(SC)C(=O)N(Cc1cccc(OC)c1OC)CC2 (stereo not given) | 2.74 µM (inactive) | 8.75 µM (inactive) | 2.01 µM (inactive) | 5.61 µM (inactive) | 2.33 µM (inactive) | 1.73 µM (inactive) | 2.03 µM (inactive) | 1.79 µM (inactive) | 14.9 µM (inactive) | 0.912 µM (active) | 0.718 µM | 0.798 µM (active) | 0.621 µM (active) | 1.92 µM (inactive) | 1.22 µM (inactive) | 2.75 µM (inactive) | 2.46 µM (inactive) | 3.3 µM (inactive) | 17.5 µM (inactive) | 1.03 µM (active)
2 | O=[N+]([O-])c1ccc(-n2nnc(C3=NCCN3)c2-c2ccc(Cl)cc2)cc1 | 51.6 µM (inactive) | > 100 µM (inactive) | > 100 µM (inactive) | > 100 µM (inactive) | 65.3 µM (inactive) | > 100 µM (inactive) | > 100 µM (inactive) | 93.3 µM (inactive) | > 100 µM (inactive) | 27.2 µM (inactive) | > 100 µM | > 100 µM (inactive) | 77.1 µM (inactive) | 55.8 µM (inactive) | > 100 µM (inactive) | > 100 µM (inactive) | > 100 µM (inactive) | 83.6 µM (inactive) | > 100 µM (inactive) | 66.8 µM (inactive)
